Calls of active or inactive are those of the source. The rule behind the calls is not given here. Where a SMILES comes first, the peptide text is derived from it. The star is where a group is joined. CH2Cl = ClC*
How the values were obtained:
[1] = molecular target: T1, Suppressor of tumorigenicity 14 protein (Homo sapiens, UniProt Q9Y5Y6); experiment: Mixed inhibition of human matriptase expressed in Drosophila melanogaster S2 cells using Boc-QAR-AMC as substrate by fluorimetric analysis
T1 sequence (Q9Y5Y6 whole entry): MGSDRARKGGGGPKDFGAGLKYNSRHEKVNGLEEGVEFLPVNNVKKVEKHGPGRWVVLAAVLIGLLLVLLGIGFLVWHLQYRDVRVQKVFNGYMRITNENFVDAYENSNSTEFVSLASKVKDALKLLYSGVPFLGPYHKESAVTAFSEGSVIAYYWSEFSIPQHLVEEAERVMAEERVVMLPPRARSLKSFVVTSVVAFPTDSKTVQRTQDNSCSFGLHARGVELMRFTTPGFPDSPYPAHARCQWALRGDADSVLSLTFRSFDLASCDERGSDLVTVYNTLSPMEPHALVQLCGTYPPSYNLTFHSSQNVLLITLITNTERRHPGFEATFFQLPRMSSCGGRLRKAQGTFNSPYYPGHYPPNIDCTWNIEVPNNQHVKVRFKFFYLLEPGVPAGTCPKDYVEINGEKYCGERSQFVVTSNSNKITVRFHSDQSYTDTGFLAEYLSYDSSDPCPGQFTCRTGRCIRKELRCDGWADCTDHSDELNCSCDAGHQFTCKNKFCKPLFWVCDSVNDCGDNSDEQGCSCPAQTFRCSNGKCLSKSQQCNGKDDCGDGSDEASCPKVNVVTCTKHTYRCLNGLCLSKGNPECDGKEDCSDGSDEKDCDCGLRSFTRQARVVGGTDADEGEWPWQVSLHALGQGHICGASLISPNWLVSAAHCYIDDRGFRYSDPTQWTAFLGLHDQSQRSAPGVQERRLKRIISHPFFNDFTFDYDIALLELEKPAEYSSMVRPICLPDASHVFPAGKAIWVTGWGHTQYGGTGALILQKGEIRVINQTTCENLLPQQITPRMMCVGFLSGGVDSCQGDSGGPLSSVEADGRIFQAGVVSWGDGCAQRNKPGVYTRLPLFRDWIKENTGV

[2] = molecular target: T2, Suppressor of tumorigenicity 14 protein (Homo sapiens) (UniProt Q9Y5Y6); experiment: Irreversible inhibition of human matriptase expressed in Drosophila melanogaster S2 cells using Boc-QAR-AMC as substrate incubated for 20 mins prior to substrate addition measured for 75 mins by fluorimetric analysis
T2 sequence (whole entry): T1 sequence (Q9Y5Y6 whole entry)

[3] = molecular target: T3, Transmembrane protease serine 6 (Homo sapiens, UniProt Q8IU80); experiment: Tight binding inhibition of human matriptase2 expressed in Drosophila melanogaster S2 cells using Boc-QAR-AMC as substrate incubated for 15 mins prior to substrate addition measured for 30 mins by fluorimetric analysis
T3 sequence (Q8IU80 whole entry): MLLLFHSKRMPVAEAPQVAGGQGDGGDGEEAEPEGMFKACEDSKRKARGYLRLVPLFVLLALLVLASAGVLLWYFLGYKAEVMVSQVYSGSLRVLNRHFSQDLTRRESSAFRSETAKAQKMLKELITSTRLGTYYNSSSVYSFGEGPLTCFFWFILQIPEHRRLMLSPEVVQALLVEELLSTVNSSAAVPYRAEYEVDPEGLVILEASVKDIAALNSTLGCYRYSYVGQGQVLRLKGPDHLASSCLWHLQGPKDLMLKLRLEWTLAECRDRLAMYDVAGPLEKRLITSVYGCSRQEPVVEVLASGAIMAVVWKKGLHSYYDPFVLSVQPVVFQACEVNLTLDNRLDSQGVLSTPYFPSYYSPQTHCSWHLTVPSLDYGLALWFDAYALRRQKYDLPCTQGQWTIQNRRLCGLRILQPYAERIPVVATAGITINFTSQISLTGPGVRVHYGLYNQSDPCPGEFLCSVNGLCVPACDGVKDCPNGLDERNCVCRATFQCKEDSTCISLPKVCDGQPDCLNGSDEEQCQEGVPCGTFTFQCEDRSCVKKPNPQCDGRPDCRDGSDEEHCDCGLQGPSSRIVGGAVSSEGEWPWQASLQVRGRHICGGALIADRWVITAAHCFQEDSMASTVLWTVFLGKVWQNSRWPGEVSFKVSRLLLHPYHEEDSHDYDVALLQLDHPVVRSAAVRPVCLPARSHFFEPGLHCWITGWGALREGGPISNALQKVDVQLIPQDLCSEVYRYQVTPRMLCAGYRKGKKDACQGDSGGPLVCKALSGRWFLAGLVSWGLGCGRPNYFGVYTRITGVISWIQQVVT

[4] = molecular target: T4, Transmembrane protease serine 11D (Homo sapiens, UniProt O60235); experiment: Tight binding inhibition of human TMPRSS11D expressed in Drosophila melanogaster S2 cells using Boc-QAR-AMC as substrate incubated for 15 mins prior to substrate addition measured for 30 mins by fluorimetric analysis
T4 sequence (O60235 whole entry): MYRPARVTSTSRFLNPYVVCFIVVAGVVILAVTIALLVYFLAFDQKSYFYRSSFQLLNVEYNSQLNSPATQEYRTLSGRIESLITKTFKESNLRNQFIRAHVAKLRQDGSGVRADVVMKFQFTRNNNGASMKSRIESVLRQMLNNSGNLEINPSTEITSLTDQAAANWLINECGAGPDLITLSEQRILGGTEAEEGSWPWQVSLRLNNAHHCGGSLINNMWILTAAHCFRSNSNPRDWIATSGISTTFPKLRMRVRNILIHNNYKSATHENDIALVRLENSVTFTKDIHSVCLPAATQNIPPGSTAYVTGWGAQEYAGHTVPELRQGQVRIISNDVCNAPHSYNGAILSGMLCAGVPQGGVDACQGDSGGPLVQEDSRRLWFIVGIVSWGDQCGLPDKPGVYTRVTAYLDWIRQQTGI

Trypsin = Trypsin (Homo sapiens, UniProt P07477+P07478+P35030); experiment: Tight binding inhibition of human trypsin expressed in Drosophila melanogaster S2 cells using Boc-QAR-AMC as substrate incubated for 15 mins prior to substrate addition measured for 30 mins by fluorimetric analysis
Prothrombin = Prothrombin (Homo sapiens, UniProt P00734); experiment: Mixed inhibition of human thrombin expressed in Drosophila melanogaster S2 cells using Boc-QAR-AMC as substrate by fluorimetric analysis
Furin (Homo sapiens) = Furin (Homo sapiens) (UniProt P09958); experiment: Inhibition of human furin expressed in Drosophila melanogaster S2 cells using Boc-RRVR-AMC as substrate at 10 uM
Chain of Furin (Homo sapiens) (P09958 whole entry): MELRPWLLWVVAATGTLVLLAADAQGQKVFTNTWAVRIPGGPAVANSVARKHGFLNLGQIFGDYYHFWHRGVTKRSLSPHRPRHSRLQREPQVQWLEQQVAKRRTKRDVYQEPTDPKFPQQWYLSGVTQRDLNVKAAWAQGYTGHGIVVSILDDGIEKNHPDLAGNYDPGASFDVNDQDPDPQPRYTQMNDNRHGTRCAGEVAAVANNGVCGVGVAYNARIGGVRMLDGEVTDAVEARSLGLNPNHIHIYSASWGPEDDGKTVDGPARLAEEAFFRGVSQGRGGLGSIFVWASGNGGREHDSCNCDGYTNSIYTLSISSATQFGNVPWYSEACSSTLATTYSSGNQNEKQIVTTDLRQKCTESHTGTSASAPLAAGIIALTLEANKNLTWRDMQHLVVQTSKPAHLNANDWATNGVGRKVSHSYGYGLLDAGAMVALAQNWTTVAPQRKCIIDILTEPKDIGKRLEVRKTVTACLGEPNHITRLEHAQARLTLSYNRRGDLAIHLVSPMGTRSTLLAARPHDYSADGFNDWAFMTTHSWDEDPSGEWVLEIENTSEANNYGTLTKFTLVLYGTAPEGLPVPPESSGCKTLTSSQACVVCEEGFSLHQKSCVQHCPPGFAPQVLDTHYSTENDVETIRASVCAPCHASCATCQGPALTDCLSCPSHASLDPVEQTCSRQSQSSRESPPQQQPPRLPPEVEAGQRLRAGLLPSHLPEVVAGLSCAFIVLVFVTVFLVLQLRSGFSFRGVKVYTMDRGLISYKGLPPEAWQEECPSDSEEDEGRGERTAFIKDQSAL

[5] = molecular target: T2, Suppressor of tumorigenicity 14 protein (Homo sapiens); conditions: S2, 2.5 nM
Description: Inhibition of human matriptase expressed in Drosophila melanogaster S2 cells using Boc-QAR-AMC as substrate at 2.5 nM by fluorimetric analysis

[6] = molecular target: T1, Suppressor of tumorigenicity 14 protein; experiment: Tight binding inhibition of human matriptase expressed in Drosophila melanogaster S2 cells using Boc-QAR-AMC as substrate incubated for 15 mins prior to substrate addition measured for 30 mins by fluorimetric analysis

C[C@H](NC(=O)[C@H](CCC(N)=O)NC(=O)[C@@H](N)CCCNC(=N)N)C(=O)N[C@@H](CCCNC(=N)N)C(O)c1nc2ccccc2s1 (mixture of isomers)
Ki [1]: 6120 nM

N=C(N)NCCC[C@H](NC(=O)CNC(=O)[C@@H](N)CCC(=O)O)C(=O)CCl (H-Glu-Gly-Arg-CH2Cl)
inhibition [2]: Active

C[C@H](NC(=O)[C@H](CCC(N)=O)NC(=O)[C@@H](N)CCCNC(=N)N)C(=O)N[C@@H](CCCNC(=N)N)C(=O)c1nc2ccccc2s1
Ki [3]: 3.3 nM | Ki [4]: 8.4 nM | Ki (Trypsin): 0.97 nM | Ki (Prothrombin): 637 nM | inhibition (Furin (Homo sapiens)): inactive | inhibition [5]: Active

N=C(N)NCCC[C@H](N)C(=O)c1nc2ccccc2s1
Ki [1]: 457 nM

C[C@H](N)C(=O)N[C@@H](CCCN=C(N)N)C(=O)c1nc2ccccc2s1
Ki [6]: 1.4 nM
